Assay results taken from US20160022714A1, “O-GLCNACYLATION TREATMENT FOR ISCHEMIC BRAIN INJURY” (THE RESEARCH FOUNDATION FOR MENTAL HYGIENE, INC., priority 2014, published 2016).
“Also recorded” adds a separate entry of the source.

Experiments:
[1] = test system: MCAO mouse model (cerebral ischemia-reperfusion injury); test: Scores of motor deficits (5-point neurological scoring) after MCAO for 2 hrs and reperfusion for 1 hr; format: in vivo; settings: vs. saline
[2] = test system: O-GlcNAcylation of brain proteins; test: Western blots for O-GlcNAcylation of brain (striatum) homogenates from drug-treated mice 2 hrs after MCAO; format: in vivo, mouse; settings: for brain O-GlcNAcylation level (change): mice treated prior to ischemia: DON 2.6 μg/mouse, glucosamine 10 mg/mouse, thiamet-G 160 μg/mouse, brain samples 2 hrs after ischemic insult
[3] = test system: MCAO mouse model (cerebral ischemia-reperfusion injury); test: Brain infarct size by TTC staining after MCAO for 2 hrs followed by reperfusion for 24 hrs; format: in vivo; settings: vs. saline; for infarct size / ischemia-induced brain damage: DON 2.6 μg/mouse, glucosamine 10 mg/mouse, thiamet-G 160 μg/mouse prior to ischemia, 24 hrs after ischemia-reperfusion
[4] = DON 2.6 μg/mouse, glucosamine 10 mg/mouse, thiamet-G 160 μg/mouse prior to ischemia, one hour after ischemia-reperfusion

Structure (SMILES)	motor deficits [1, 4]	brain O-GlcNAcylation level (change) [2]	infarct size / ischemia-induced brain damage [3]	motor deficits ([1]; thiamet-G 0.1 μg/mouse, icy injection, MCAO 2 hrs, reperfusion 1 hr)	elevation of O-GlcNAcylation ([2]; thiamet-G 0.1 μg/mouse, icy injection 24 hrs before MCAO, compared with 10 mg glucosamine/mouse i.p.)	elevation of O-GlcNAcylation ([2]; thiamet-G initial dose 160 μg/mouse, 2 hrs after MCAO) [fold]	infarct size ([3]; thiamet-G 0.1 μg/mouse, icy injection, MCAO 2 hrs, reperfusion 24 hrs)
[N-]=[N+]=CC(=O)CC[C@H](N)C(=O)O [DON, 6-diazo-5-oxonorleucine]	aggravated; also recorded: increased	reduction; also recorded: reduced	aggravated; also recorded: increased	–	–	–	–
CCN=C1N[C@@H]2[C@@H](O)[C@H](O)[C@@H](CO)O[C@@H]2S1 [thiamet-G]	more severe; also recorded: worsened	elevation	more severe brain damage; also recorded: worsened	reduced	comparable elevation	> 6	reduced
N[C@H]1C(O)O[C@H](CO)[C@@H](O)[C@@H]1O (stereo partly shown) [glucosamine]	ameliorated; also recorded: reduced	moderate elevation	ameliorated; also recorded: reduced	–	–	–	–
